Reference: patent publication US10787452B2 (Vertex Pharmaceuticals Incorporated, priority 2012, dated 2020)

What follows are molecules tested on HCT116 colorectal cancer cells (assay: Cisplatin sensitization assay (96 h cell viability MTS)). Conditions: 96 h MTS, compound plus Cisplatin.
Format: cell-based
How it was run: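 Test compound and cisplatin were added together as a full matrix of 2-fold serial dilutions, each from a top final concentration of 10 μM. Cells were incubated 96 h at 37° C in 5% CO2, then viability was read by MTS after a further 1 h incubation.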
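Also: compound concentration needed to lower the Cisplatin-alone IC50 by a set fold.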

| Structure (SMILES) | Cisplatin Sensitization Assay |
| --- | --- |
| CN1CCN(c2c(NC(=O)c3c(N)nn4cc(F)cnc34)cncc2C(F)F)CC1 [I-N-111, 2-amino-N-(5-(difluoromethyl)-4-(4-methylpiperazin-1-yl)pyridin-3-yl)-6-fluoropyrazolo[1,5-a]pyrimidine-3-carboxamide] | ++ (Compounds with a Cisplatin sensitization value >0.02 μM but <0.2 μM are marked with “++.”) |
| CN(C)Cc1ccc(Oc2ccncc2NC(=O)c2c(N)nn3cc(F)cnc23)cn1 [I-O-3, 2-amino-N-(4-((6-((dimethylamino)methyl)pyridin-3-yl)oxy)pyridin-3-yl)-6-fluoropyrazolo[1,5-a]pyrimidine-3-carboxamide] | ++ (Compounds with a Cisplatin sensitization value >0.02 μM but <0.2 μM are marked with “++.”) |
| CN1CCN(c2c(C#N)cncc2NC(=O)c2c(N)nn3cc(F)cnc23)CC1 [I-N-113, 2-amino-N-(5-cyano-4-(4-methylpiperazin-1-yl)pyridin-3-yl)-6-fluoropyrazolo[1,5-a]pyrimidine-3-carboxamide] | + (Compounds with a Cisplatin sensitization value >0.2 μM but <5 μM are marked with “+.”) |
| CN1CCN(CC2CCN(c3c(F)cncc3NC(=O)c3c(N)nn4cc(C5(C#N)CC5)cnc34)CC2)CC1 [I-N-192, 2-amino-6-(1-cyanocyclopropyl)-N-(5-fluoro-4-(4-((4-methylpiperazin-1-yl)methyl)piperidin-1-yl)pyridin-3-yl)pyrazolo[1,5-a]pyrimidine-3-carboxamide] | +++ (Compounds with a Cisplatin sensitization value of <0.02 μM are marked with “+++.”) |
| COC1CCN(c2ccncc2NC(=O)c2c(N)nn3cc(F)cnc23)CC1 [I-N-266, 2-amino-6-fluoro-N-(4-(4-methoxypiperidin-1-yl)pyridin-3-yl)pyrazolo[1,5-a]pyrimidine-3-carboxamide] | +++ (Compounds with a Cisplatin sensitization value of <0.02 μM are marked with “+++.”) |
| Nc1nn2cc(F)cnc2c1C(=O)Nc1cnccc1-n1cnc(C(F)(F)F)c1 [I-N-27, 2-amino-6-fluoro-N-(4-(4-(trifluoromethyl)-1H-imidazol-1-yl)pyridin-3-yl)pyrazolo[1,5-a]pyrimidine-3-carboxamide] | ++ (Compounds with a Cisplatin sensitization value >0.02 μM but <0.2 μM are marked with “++.”) |
| CN1C2CCC1CN(C(=O)C1CCN(c3c(F)cncc3NC(=O)c3c(N)nn4cc(F)cnc34)CC1)C2 [I-G-52, 2-amino-6-fluoro-N-(5-fluoro-4-(4-(8-methyl-3,8-diazabicyclo[3.2.1]octane-3-carbonyl)piperidin-1-yl)pyridin-3-yl)pyrazolo[1,5-a]pyrimidine-3-carboxamide] | +++ (Compounds with a Cisplatin sensitization value of <0.02 μM are marked with “+++.”) |
| CN1CCCCC1C(=O)N1CCN(c2c(F)cncc2NC(=O)c2c(N)nn3cc(F)cnc23)CC1 (centres unmarked) [I-N-173, 2-amino-6-fluoro-N-(5-fluoro-4-(4-(1-methylpiperidine-2-carbonyl)piperazin-1-yl)pyridin-3-yl)pyrazolo[1,5-a]pyrimidine-3-carboxamide] | +++ (Compounds with a Cisplatin sensitization value of <0.02 μM are marked with “+++.”) |
| COCC1CCN(c2ccncc2NC(=O)c2c(N)nn3cc(F)cnc23)CC1 [I-N-282, 2-amino-6-fluoro-N-(4-(4-(methoxymethyl)piperidin-1-yl)pyridin-3-yl)pyrazolo[1,5-a]pyrimidine-3-carboxamide] | +++ (Compounds with a Cisplatin sensitization value of <0.02 μM are marked with “+++.”) |
| Nc1nn2cc(F)cnc2c1C(=O)Nc1cncc(F)c1N1CCC(C(=O)N2CCN3CCCC3C2)CC1 (centres unmarked) [I-G-10, 2-amino-6-fluoro-N-(5-fluoro-4-(4-(octahydropyrrolo[1,2-a]pyrazine-2-carbonyl)piperidin-1-yl)pyridin-3-yl)pyrazolo[1,5-a]pyrimidine-3-carboxamide] | +++ (Compounds with a Cisplatin sensitization value of <0.02 μM are marked with “+++.”) |
| Nc1nn2cc(Cl)cnc2c1C(=O)Nc1cncc(F)c1N1CCC(C(=O)N2CCN3CCC2CC3)CC1 [I-G-87, N-(4-(4-(1,4-diazabicyclo[3.2.2]nonane-4-carbonyl)piperidin-1-yl)-5-fluoropyridin-3-yl)-2-amino-6-chloropyrazolo[1,5-a]pyrimidine-3-carboxamide] | +++ (Compounds with a Cisplatin sensitization value of <0.02 μM are marked with “+++.”) |
| CN1CCOCC1C(=O)N1CCN(c2c(F)cncc2NC(=O)c2c(N)nn3cc(F)cnc23)CC1 (centres unmarked) [I-N-227, 2-amino-6-fluoro-N-(5-fluoro-4-(4-(4-methylmorpholine-3-carbonyl)piperazin-1-yl)pyridin-3-yl)pyrazolo[1,5-a]pyrimidine-3-carboxamide] | +++ (Compounds with a Cisplatin sensitization value of <0.02 μM are marked with “+++.”) |
| Nc1nn2cc(F)cnc2c1C(=O)Nc1cnccc1N1CCC2(CCNC2)CC1 [I-N-255, N-(4-(2,8-diazaspiro[4.5]decan-8-yl)pyridin-3-yl)-2-amino-6-fluoropyrazolo[1,5-a]pyrimidine-3-carboxamide] | ++ (Compounds with a Cisplatin sensitization value >0.02 μM but <0.2 μM are marked with “++.”) |
| CN1CCN(C(=O)[C@H]2CC[C@@H](Oc3ccncc3NC(=O)c3c(N)nn4cc(F)cnc34)CC2)CC1 [I-O-19] | +++ (Compounds with a Cisplatin sensitization value of <0.02 μM are marked with “+++.”) |
| C[C@@H]1CN(C(=O)C2CCN(c3c(F)cncc3NC(=O)c3c(N)nn4cc(F)cnc34)CC2)CCN1C [I-G-50, (R)-2-amino-N-(4-(4-(3,4-dimethylpiperazine-1-carbonyl)piperidin-1-yl)-5-fluoropyridin-3-yl)-6-fluoropyrazolo[1,5-a]pyrimidine-3-carboxamide] | +++ (Compounds with a Cisplatin sensitization value of <0.02 μM are marked with “+++.”) |
| CO[C@H]1CCN(C(=O)C2CCN(c3c(F)cncc3NC(=O)c3c(N)nn4cc(F)cnc34)CC2)C1 [I-G-99, (S)-2-amino-6-fluoro-N-(5-fluoro-4-(4-(3-methoxypyrrolidine-1-carbonyl)piperidin-1-yl)pyridin-3-yl)pyrazolo[1,5-a]pyrimidine-3-carboxamide] | +++ (Compounds with a Cisplatin sensitization value of <0.02 μM are marked with “+++.”) |
| N#CCc1cnc2c(C(=O)Nc3cnccc3OC3CCCNC3)c(N)nn2c1 (racemic) [I-O-2, (R,S)-2-amino-6-(cyanomethyl)-N-(4-(piperidin-3-yloxy)pyridin-3-yl)pyrazolo[1,5-a]pyrimidine-3-carboxamide] | ++ (Compounds with a Cisplatin sensitization value >0.02 μM but <0.2 μM are marked with “++.”) |
| COc1ccncc1NC(=O)c1c(N)nn2cc(CC#N)cnc12 [I-O-26, 2-amino-6-(cyanomethyl)-N-(4-methoxypyridin-3-yl)pyrazolo[1,5-a]pyrimidine-3-carboxamide] | ++ (Compounds with a Cisplatin sensitization value >0.02 μM but <0.2 μM are marked with “++.”) |
| CN(C)C(=O)C1CCN(c2ccncc2NC(=O)c2c(N)nn3cc(F)cnc23)CC1 [I-G-2, 2-amino-N-(4-(4-(dimethylcarbamoyl)piperidin-1-yl)pyridin-3-yl)-6-fluoropyrazolo[1,5-a]pyrimidine-3-carboxamide] | +++ (Compounds with a Cisplatin sensitization value of <0.02 μM are marked with “+++.”) |
| CC1CN(C)CCN1c1ccncc1NC(=O)c1c(N)nn2cc(Cl)cnc12 (centres unmarked) [I-N-72, 2-amino-6-chloro-N-(4-(2,4-dimethylpiperazin-1-yl)pyridin-3-yl)pyrazolo[1,5-a]pyrimidine-3-carboxamide] | +++ (Compounds with a Cisplatin sensitization value of <0.02 μM are marked with “+++.”) |
| Nc1nn2cc(F)cnc2c1C(=O)Nc1cncc(F)c1C1CCN(C2COC2)CC1 [I-C-13, 2-amino-6-fluoro-N-(5-fluoro-4-(1-(oxetan-3-yl)piperidin-4-yl)pyridin-3-yl)pyrazolo[1,5-a]pyrimidine-3-carboxamide] | ++ (Compounds with a Cisplatin sensitization value >0.02 μM but <0.2 μM are marked with “++.”) |
| Cn1nncc1-c1ccncc1NC(=O)c1c(N)nn2cc(F)cnc12 [I-C-72, 2-amino-6-fluoro-N-(4-(1-methyl-1H-1,2,3-triazol-5-yl)pyridin-3-yl)pyrazolo[1,5-a]pyrimidine-3-carboxamide] | +++ (Compounds with a Cisplatin sensitization value of <0.02 μM are marked with “+++.”) |
| Cn1c(-c2ccncc2NC(=O)c2c(N)nn3cc(F)cnc23)cccc1=O [I-C-58, 2-amino-6-fluoro-N-(1-methyl-6-oxo-1,6-dihydro-[2,4′-bipyridin]-3′-yl)pyrazolo[1,5-a]pyrimidine-3-carboxamide] | +++ (Compounds with a Cisplatin sensitization value of <0.02 μM are marked with “+++.”) |
| CN(C)[C@@H]1CCN(C(=O)C2CCN(c3c(F)cncc3NC(=O)c3c(N)nn4cc(F)cnc34)CC2)C1 [I-G-11, (R)-2-amino-N-(4-(4-(3-(dimethylamino)pyrrolidine-1-carbonyl)piperidin-1-yl)-5-fluoropyridin-3-yl)-6-fluoropyrazolo[1,5-a]pyrimidine-3-carboxamide] | +++ (Compounds with a Cisplatin sensitization value of <0.02 μM are marked with “+++.”) |
| CN1CCN(S(=O)(=O)C2CCN(c3c(F)cncc3NC(=O)c3c(N)nn4cc(F)cnc34)CC2)CC1 [I-N-166, 2-amino-6-fluoro-N-(5-fluoro-4-(4-((4-methylpiperazin-1-yl)sulfonyl)piperidin-1-yl)pyridin-3-yl)pyrazolo[1,5-a]pyrimidine-3-carboxamide] | +++ (Compounds with a Cisplatin sensitization value of <0.02 μM are marked with “+++.”) |
| Nc1nn2cc(F)cnc2c1C(=O)Nc1cncc(F)c1N1CCN(C(=O)CN2CCC2)CC1 [I-N-160, 2-amino-N-(4-(4-(2-(azetidin-1-yl)acetyl)piperazin-1-yl)-5-fluoropyridin-3-yl)-6-fluoropyrazolo[1,5-a]pyrimidine-3-carboxamide] | +++ (Compounds with a Cisplatin sensitization value of <0.02 μM are marked with “+++.”) |
